Measured values from US20200281949A1, “METHODS FOR TREATING CASTRATION-RESISTANT AND CASTRATION-SENSITIVE PROSTATE CANCER” (TOLERO PHARMACEUTICALS, INC., priority 2018, published 2020).
pIC50: −log10 of the molar value.

Key:
[1] = system: PC3 cells; assay: Cell viability assay in PC3 prostate cancer cells; assay type: cell-based; conditions: Homo sapiens, PC-3, alvocidib 3.9 nM-1000 nM
Protocol: (§1) The compound of structure (I), and pharmaceutically acceptable salts and zwitterionic forms thereof, is converted in vivo to alvocidib (see U.S. Patent Publication No. US 2016/0340376, the full disclosure of which is hereby incorporated by reference in its entirety). Therefore, the in vitro effects of alvocidib were evaluated in multiple prostate cancer cell lines with varied sensitivity to androgen. PC3 is an AR-negative prostate cancer cell line with little to no expression of PSA and low sensitivity to androgens. VCAP is a prostate cancer cell line that is positive for ARv7, and can grow in an androgen-independent manner. LNCAP is an androgen-dependent prostate cancer cell line. 22Rv1 is a prostate cancer cell line that is positive for ARv7, has low sensitivity to androgen, and is derived from a xenograft that was serially propagated in mice after castration-induced regression and relapse of the parental, androgen-dependent CWR22 xenograft. […] Cell viability may be assessed, for example, using CellTiter-Glo according to manufacturer protocol.

[2] = system: VCAP cells; assay: Cell viability assay in VCAP prostate cancer cells; assay type: cell-based; conditions: Homo sapiens, alvocidib 3.9 nM-1000 nM
Protocol: as §1

[3] = system: LNCaP cells; assay: Cell viability assay in LNCaP prostate cancer cells; assay type: cell-based; conditions: Homo sapiens, alvocidib 3.9 nM-1000 nM
Protocol: as §1

[4] = system: 22Rv1 cells; assay: Cell viability assay in 22Rv1 prostate cancer cells; assay type: cell-based; conditions: Homo sapiens, alvocidib 0.0026 nM-1000 nM
Protocol: as §1

[5] = system: androgen receptor (phospho- and total-AR) in 22Rv1 and LNCaP cells; assay: Immunoblotting of androgen receptor in serum-stimulated prostate cancer cells; assay type: cell-based, human; conditions: 80 nM or 160 nM, 24 hours of treatment, serum stimulated 1 hour before collection
Protocol: In a first experiment to evaluate the effects of alvocidib on serum stimulated prostate cancer cells, androgen receptor expression was assessed by immunoblotting. […] The prostate cancer cells, 22Rv1 or LNCaP, were treated with DMSO or alvocidib (80 nM or 160 nM), for either 3 hours or 24 hours, and were serum stimulated one hour prior to sample collection (or the cells were serum starved as a control).

[6] = system: TMPRSS2 expression in 22Rv1 cells; assay: Quantitative real-time PCR of TMPRSS2 mRNA in serum-stimulated 22Rv1 cells; assay type: cell-based, human; conditions: 80 nM or 160 nM, 3 or 24 hours, 22Rv1 cells serum stimulated 1 hour before collection
Protocol: In another experiment; androgen receptor expression and functionality were assessed using quantitative real-time PCR measurement of the mRNA level of transmembrane protease, serine 2 (TMPRSS2) mRNA levels in prostate cancer cell line 22Rv1, as described in Chen et al., 2012. […] TMPRSS1 is an androgen-responsive gene, which is transcriptionally regulated by androgen receptor. An androgen response may be driven by the addition of exogenous testosterone; or by serum stimulation (which contains androgens), in prostate cancer cell lines.
The 22Rv1 cells were treated with DMSO or alvocidib (80 nM or 160 nM) for either 3 hours or 24 hours, and serum stimulated one hour prior to sample collection (or the cells were serum starved as a control).

[7] = system: PSA expression in 22Rv1 cells; assay: PSA expression in serum-stimulated 22Rv1 cells; assay type: cell-based, human; conditions: 80 nM or 160 nM, 24 hours
Protocol: The 22Rv1 cells were treated with DMSO or alvocidib (80 nM or 160 nM) for 24 hours, and serum stimulated either 3 hours or 23 hours following treatment (or the cells were serum starved as a control).

[8] = system: RNA Pol II phosphorylation in 22Rv1 cells; assay: RNA Pol II phosphorylation by flow cytometry in 22Rv1 cells; assay type: cell-based, human; conditions: 80 nM or 160 nM, three hours, 10% serum stimulated 1 hour before collection; vs DMSO
Protocol: To evaluate the effects of alvocidib on serum-stimulated prostate cancer cells, RNA Polymerase (Pol) II phosphorylation was assessed by flow cytometry. The prostate cancer cells, 22Rv1 cells, were treated with DMSO or alvocidib (80 nM or 160 nM) for three hours, and were serum stimulated (10%) one hour prior to sample collection. Goat anti-rabbit IgG H&L was used as an isotype control.

[9] = system: PSA in VCaP cells; assay: PSA protein level by Western blot in VCaP cells; assay type: cell-based; conditions: 25 nM or 100 nM, 48 hours, vs vehicle
Protocol: (§2) On the day of the treatment, the media was replaced with 10 mL of fresh media. […] Cells were collected by scraping, washed in PBS, and lysed using sonication in RIPA buffer supplemented with protease and phosphatase inhibitors. […] of protein was loaded into a 4-12% gel, and transferred to a nitrocellulose membrane. Blocking, anti-actin, and secondary staining was done in 5% milk. Anti-PSA antibody was diluted in BSA.

[10] = system: PSA in LNCaP cells; assay: PSA protein level by Western blot in LNCaP cells; assay type: cell-based, human; conditions: 25 nM or 100 nM, 48 hours, vs vehicle
Protocol: as §2

[11] = system: LNCaP cells (caspase 3 cleavage); assay: Cell death by caspase 3 cleavage Western blot in LNCaP cells; assay type: cell-based, human; conditions: 100 nM, 48 hours, 10% serum
Protocol: LNCaP cells were treated with 100 nM alvocidib for 48 hours in regular 10% serum conditions. Cells were collected by scraping, washed in PBS, and lysed using sonication in RIPA buffer supplemented with protease and phosphatase inhibitors. […] of protein was loaded into a 4-12% gel, and transferred to a PVDF membrane. Blocking and staining was performed in 5% milk. […] Anti-actin was used as a loading control.

[12] = PK analysis in PC-3 mouse xenograft model (plasma and tumor, LC-MS/MS); assay type: in vivo; conditions: 24 hours after oral gavage of compound of structure (I) 7.5 or 15 mg/kg; PC-3 xenograft mice
Protocol: PC-3 prostate tumor cells were maintained in vitro as a monolayer culture in Ham's F12K medium supplemented with 10% fetal bovine serum at 37° C. in an atmosphere of 5% CO2 in air. The cells in an exponential growth phase were harvested and counted for tumor inoculation. Each mouse was inoculated subcutaneously at the right flank region with PC-3 prostate tumor cells (5×10^6 cells) in 0.1 ml of PBS for tumor development. When the mean tumor size reached approximately 300 mm^3, the mice were randomized and divided into study groups.

[13] = Phase I dose-escalation study in patients with advanced solid tumors: plasma PK; assay type: in vivo, human; conditions: for Tmax: plasma alvocidib, Cohort 5, 6 mg BID oral compound of structure (I) (Formulation No. 401-01)
Protocol: Plasma PK parameters of compound of structure (I) and alvocidib were evaluated in Cohorts 1-5 at specific timepoints during the study. Blood was collected from patients in Cohorts 1-5 according to the pharmacokinetic sampling schedule described in Table 9.
PK parameters were estimated using standard noncompartmental methods. Actual sample collection times were used rather than scheduled collection times. Plasma concentrations below the limit of quantification were treated as 0. Imbedded missing plasma concentrations (e.g., missing values between two observed values) were estimated using linear […]. This is consistent with using the trapezoidal rule to calculate AUC. Other missing plasma concentrations were excluded from calculations to estimate PK parameters.

[14] = system: subcutaneous 22Rv1 human prostate cancer xenograft; assay: Efficacy study in the 22Rv1 xenograft prostate cancer model; assay type: in vivo, male BALB/c nude mice; conditions: castrated mice, 21 days; doses per Table 1: Cmpd Str (I) 1.25 mg/kg p.o. BID or 10 mg/kg p.o. Q7D; enzalutamide 30 mg/kg p.o. QD; docetaxel 10 mg/kg i.p. Q7D; ABT199 100 mg/kg p.o. QD
Protocol: The objective of this study was to evaluate the in vivo therapeutic efficacy of the compound of structure (I) or a pharmaceutically acceptable salt or zwitterionic form thereof in the treatment of a subcutaneous 22Rv1 human prostate cancer xenograft model. For the 22Rv1 model, efficacy of the compound of structure (I) was evaluated in male BALB/c nude mice. Cobalt-60 irradiation of all mice was performed 2 days before the tumor inoculation at 2 Gy (1 Gy=100 rads). Each mouse was inoculated at the right flank with 1×10^7 tumor cells in 0.1 ml of PBS mixed with matrigel (1:1). The date of tumor cell inoculation was denoted as day 0.
Castration was performed when mean tumor volume reached approximately 200 mm^3. Mice were anesthetized with ketamine/xylazine; surgical castration was performed via a midline scrotal incision allowing bilateral access to the hemiscrotal contents; after exposing each testicle, a 6-0 Vicryl suture was used to ligate the spermatic cord and then remove the testicle; the scrota and skin was then closed with 6-0 Vicryl suture, separately. Treatments started when the mean tumor volume re-grew to approximately 100 mm^3.
After tumors reached the appropriate size, approximately 100-200 mm^3, mice were randomized into treatment groups 1-11, which are shown in Table 1. Each treatment was administered starting on day 15, at a dosing volume of 5 μL/g and continued for 21 days (or 22 days for groups with treatment at Q7D). For groups with treatment at Q7D×3 weeks, dosing was performed on days 1, 8, and 15 post-randomization, and the study was terminated on day 22 post randomization. The combined treatment intervals were each 0 h, and the interval for BID was 8 h. Randomization was performed based on the “Matched distribution” method (StudyDirector™ software, version 3.1.399.19) randomized block design.
Tumor volumes were measured twice per week after randomization in two dimensions using a caliper, and the volume was expressed in mm^3 using the formula: “V=(L×W×W)/2,” where V is tumor volume, L is tumor length (the longest tumor dimension) and W is tumor width (the longest tumor dimension perpendicular to L). The average tumor volume for each group, as a percentage of the average tumor volume of the control group (group 1), is shown in FIG. 6. […] The percentage shown in FIG. 7 (% T/C) is calculated as mean(T)/mean(C)*100%, with “T” representing tumor volume and “C” representing tumor volume for group 1.
T and C are the mean tumor volume (or weight) of the treated groups and control group (group 1), respectively, on a given day. The percentages shown in FIG. 10 are calculated as % ΔT/C=(mean(T)−mean(T0))/(mean(C)−mean(C0))*100%, with “0” indicating the initial timepoint.

Compound: CN1CC[C@H](c2c(O)cc(O)c3c(=O)cc(-c4ccccc4Cl)oc23)[C@H](O)C1 [alvocidib, 2-(2-chlorophenyl)-5,7-dihydroxy-8-[(3S,4R)-3-hydroxy-1-methylpiperidin-4-yl]chromen-4-one]
- pIC50 [1]: 6.99
- pIC50 [2]: 7.46
- pIC50 [3]: 7.50
- pIC50 [4]: 6.77
- phospho- and total-AR protein levels [5]: lowers phospho- and total-AR levels
- serum-stimulated induction of TMPRSS2 expression [6]: inhibited serum-stimulated induction of TMPRSS2
- serum stimulated induction of PSA expression [7]: inhibited serum stimulated induction of PSA
- RNA Pol II phosphorylation staining (flow cytometry) [8]: dose-dependent reduction
- PSA expression at protein level [9]: inhibited PSA expression
- PSA expression at protein level [10]: inhibited PSA expression
- cell death, as indicated by caspase 3 cleavage [11]: induced cell death
- retention of alvocidib in plasma and tumor [12]: retained in plasma and tumor tissues
- accumulation of alvocidib in plasma ([13]; Cohort 1, 1 mg QD oral Formulation No. 401-01, Subject 104, after 24 hours on day 14): some accumulation
- change in average Cmax and AUC of alvocidib from day 1 to day 14 ([13]; Cohort 2, 1 mg BID oral Formulation No. 401-01): marked increase
- Tmax ([13]; Cycle 1 Day 1, Mean of subjects 501-503): 60 min
- Tmax ([13]; Cycle 1 Day 1, Subject 501): 30 min
- Tmax ([13]; Cycle 1 Day 1, Subject 502): 120 min
- Tmax ([13]; Cycle 1 Day 1, Subject 503): 30 min
- Tmax ([13]; Cycle 1 Day 14, Mean of subjects 501-503): 60 min
- Tmax ([13]; Cycle 1 Day 14, Subject 501): 30 min
- Tmax ([13]; Cycle 1 Day 14, Subject 502): 120 min
- Tmax ([13]; Cycle 1 Day 14, Subject 503): 30 min

Compound: CC(=O)O[C@@]12CO[C@@H]1C[C@H](O)[C@@]1(C)C(=O)[C@H](O)C3=C(C)[C@@H](OC(=O)[C@H](O)[C@@H](NC(=O)OC(C)(C)C)c4ccccc4)C[C@@](O)([C@@H](OC(=O)c4ccccc4)[C@H]21)C3(C)C [docetaxel, 1,7β,10β-trihydroxy-9-oxo-5β,20-epoxytax-11-ene-2α,4,13α-triyl 4-acetate 2-benzoate 13-{(2R,3S)-3-[(tert-butoxycarbonyl)amino]-2-hydroxy-3-phenylpropanoate}]
- anti-cancer activity in the 22Rv1 xenograft model (tumor growth) [14]: not active

Compound: CNC(=O)c1ccc(N2C(=S)N(c3ccc(C#N)c(C(F)(F)F)c3)C(=O)C2(C)C)cc1F [enzalutamide, 4-(3-(4-cyano-3-(trifluoromethyl)phenyl)-5,5-dimethyl-4-oxo-2-thioxoimidazolidin-1-yl)-2-fluoro-N-methylbenzamide]
- anti-cancer activity in the 22Rv1 xenograft model (tumor growth) [14]: not active

Compound: CC1(C)CCC(CN2CCN(c3ccc(C(=O)NS(=O)(=O)c4ccc(NCC5CCOCC5)c([N+](=O)[O-])c4)c(Oc4cnc5[nH]ccc5c4)c3)CC2)=C(c2ccc(Cl)cc2)C1 [venetoclax]
- anti-cancer activity in the 22Rv1 xenograft model (tumor growth) [14]: not active
